Test: xn = mol fraction of the nth substance listed
Conditions: 101 kPa, Liquid, Vibrating tube method

CC(C)(C)O [2-methylpropan-2-ol] + O
Conditions | mass density [kg/m3]
298.15 K, x1 = 0.6029 | 813.22
298.15 K, x1 = 0.6909 | 803.57
298.15 K, x1 = 0.726 | 800.1
298.15 K, x1 = 0.7999 | 794.07
298.15 K, x1 = 0.8711 | 788.3
298.15 K, x1 = 0.9183 | 785.07
298.15 K, x1 = 0.9574 | 782.74
298.15 K, x1 = 0.9652 | 782.29
298.15 K, x1 = 0.9795 | 781.56
298.15 K, x1 = 0.9873 | 781.18
298.15 K, x1 = 0.9935 | 780.83
298.15 K, x1 = 0.9963 | 780.69
299.15 K, x1 = 0.9821 | 780.36
299.15 K, x1 = 0.9944 | 779.76
299.15 K, x1 = 0.996 | 779.69
299.15 K, x1 = 1 | 779.48
303.15 K, x1 = 0.9821 | 776.31
303.15 K, x1 = 0.9944 | 775.66
303.15 K, x1 = 0.996 | 775.58
303.15 K, x1 = 1 | 775.39
308.15 K, x1 = 0.00089 | 993.36
308.15 K, x1 = 0.00146 | 992.96
308.15 K, x1 = 0.00269 | 992.08
308.15 K, x1 = 0.00403 | 991.15
308.15 K, x1 = 0.00513 | 990.39
308.15 K, x1 = 0.00761 | 988.7
308.15 K, x1 = 0.01405 | 984.86
308.15 K, x1 = 0.0248 | 978.65
308.15 K, x1 = 0.03494 | 973.48
308.15 K, x1 = 0.04241 | 969.43
308.15 K, x1 = 0.05218 | 963.7
308.15 K, x1 = 0.05887 | 959.67
308.15 K, x1 = 0.06973 | 953.09
308.15 K, x1 = 0.1125 | 928.56
308.15 K, x1 = 0.1566 | 906.33
308.15 K, x1 = 0.208 | 886.22
308.15 K, x1 = 0.2408 | 874.67
308.15 K, x1 = 0.3023 | 856.97
308.15 K, x1 = 0.3451 | 846.68
308.15 K, x1 = 0.4045 | 834.17
308.15 K, x1 = 0.4225 | 830.99
308.15 K, x1 = 0.4653 | 823.8
308.15 K, x1 = 0.5344 | 812.83
308.15 K, x1 = 0.6029 | 803.86
308.15 K, x1 = 0.6909 | 794.03
308.15 K, x1 = 0.726 | 790.54
308.15 K, x1 = 0.7999 | 784.37
308.15 K, x1 = 0.8711 | 778.45
308.15 K, x1 = 0.9183 | 775.09
308.15 K, x1 = 0.9574 | 772.63
308.15 K, x1 = 0.9652 | 772.13
308.15 K, x1 = 0.9795 | 771.34
308.15 K, x1 = 0.9821 | 771.14
308.15 K, x1 = 0.9944 | 770.47
308.15 K, x1 = 0.996 | 770.38
308.15 K, x1 = 1 | 770.14
313.15 K, x1 = 0.9821 | 765.88
313.15 K, x1 = 0.9944 | 765.18
313.15 K, x1 = 0.996 | 765.09
313.15 K, x1 = 1 | 764.84
318.15 K, x1 = 0.9821 | 760.53
318.15 K, x1 = 0.9944 | 759.8
318.15 K, x1 = 0.996 | 759.71
318.15 K, x1 = 1 | 759.46
323.15 K, x1 = 0.00089 | 987.36
323.15 K, x1 = 0.00146 | 986.95
323.15 K, x1 = 0.00269 | 986.1
323.15 K, x1 = 0.00403 | 985.16
323.15 K, x1 = 0.00513 | 984.39
323.15 K, x1 = 0.00761 | 982.75
323.15 K, x1 = 0.01405 | 978.38
323.15 K, x1 = 0.0248 | 971.52
323.15 K, x1 = 0.03494 | 965.43
323.15 K, x1 = 0.04241 | 960.77
323.15 K, x1 = 0.05218 | 954.06
323.15 K, x1 = 0.05887 | 949.57
323.15 K, x1 = 0.06973 | 942.66
323.15 K, x1 = 0.1125 | 916.92
323.15 K, x1 = 0.1566 | 893.97
323.15 K, x1 = 0.208 | 873.34
323.15 K, x1 = 0.2408 | 861.46
323.15 K, x1 = 0.3023 | 843.45
323.15 K, x1 = 0.3451 | 832.95
323.15 K, x1 = 0.4045 | 820.18
323.15 K, x1 = 0.4225 | 816.91
323.15 K, x1 = 0.4653 | 809.6
